Results on 28 compounds are retold here after patent US11384063B2, “Modulators of estrogen receptor proteolysis and associated methods of use” (Arvinas Operations, Inc., priority 2017, dated 2022).

The first test addresses T1, ERα (Homo sapiens, UniProt P03372).
T1 sequence (P03372 1-595): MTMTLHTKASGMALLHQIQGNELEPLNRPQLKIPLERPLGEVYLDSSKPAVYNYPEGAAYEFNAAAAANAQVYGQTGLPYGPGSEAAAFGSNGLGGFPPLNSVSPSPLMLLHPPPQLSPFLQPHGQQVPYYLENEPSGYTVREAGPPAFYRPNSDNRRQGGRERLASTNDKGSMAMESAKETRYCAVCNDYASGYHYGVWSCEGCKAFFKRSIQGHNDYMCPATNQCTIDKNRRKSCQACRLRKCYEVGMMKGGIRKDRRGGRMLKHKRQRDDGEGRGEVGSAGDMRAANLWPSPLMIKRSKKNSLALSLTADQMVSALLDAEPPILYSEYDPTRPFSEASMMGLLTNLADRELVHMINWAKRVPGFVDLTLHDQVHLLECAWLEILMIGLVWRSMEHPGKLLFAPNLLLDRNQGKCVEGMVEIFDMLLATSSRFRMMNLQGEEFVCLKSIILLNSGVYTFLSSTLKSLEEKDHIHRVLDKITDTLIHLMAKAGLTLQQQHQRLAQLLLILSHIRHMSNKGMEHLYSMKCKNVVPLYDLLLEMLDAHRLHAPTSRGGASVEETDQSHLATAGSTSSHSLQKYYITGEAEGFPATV
Description: ERE luciferase reporter gene assay in T47D-KBluc cells (target engagement). Type of test: cell-based. Also on record: T47D human breast cancer cells stably transfected with estrogen responsive element/promoter/luciferase reporter gene; host or cells: T47D-KBluc cells. Conditions: 10% FBS, 24 hours, Table 2 VHL centric PROTACs, read-out: IC50. The protocol: Chimeric molecules were assessed for target engagement in T47D cells using the commercial kit of ERE luciferase reporter gene assay. In the assay, 10% FBS was included and estrogen level was measured to be 10 pM.
ERE Luciferase Assay for Compounds in Table 1-3.
T47D-KBluc cells (ATCC #CRL_2865, T47D human breast cancer cells stably transfected with estrogen responsive element/promoter/luciferase reporter gene) were seeded into 96-well white opaque plates in RPMI growth medium supplemented with 10% fetal bovine serum and allowed to adhere overnight in a 37° C. humidified incubator. The following day, cells were treated with PROTACs in a 12-point concentration curve (top final concentration of 300 nM with subsequent concentrations being 3-fold less with 2 pM being the lowest concentration in the assay). Each PROTAC was tested independently in two experiments on 96-well plates. After 24 hours, media was removed and lysis buffer was added to the wells. Following lysis, Bright-Glo™ Luciferase Assay Substrate (Prornega, Madison Wis.) was added and the luciferase activity was measured using a Cytation 3 plate reader (TioTek™, Winooski, Vt.). Each compound was assayed in duplicates and the activity was calculated as IC50 using GraphPad Prism software (San Diego, Calif.).
On the technique in general: A reporter such as luciferase makes a cellular process visible.
In general, IC50 refers to the concentration that inhibits the measured activity by half. In the case of `Cc1ncsc1-c1ccc([C@H](C)NC(=O)[C@@H]2C[C@@H](O)CN2C(=O)[C@@H](NC(=O)COCCOCCCOc2ccc(Oc3c(-c4ccc(F)cc4)sc4cc(O)ccc34)cc2)C(C)(C)C)cc1` [Compound 113, (2S,4R)-1-((S)-2-(2-(2-(3-(4-(2-(4-fluorophenyl)-6-hydroxybenzo[b]thiophen-3-yloxy)phenoxy)propoxy)ethoxy)acetamido)-3,3-dimethylbutanoyl)-4-hydroxy-N—((S)-1-(4-(4-methylthiazol-5-yl)phenyl)ethyl)pyrrolidine-2-carboxamide], the IC50 stood at 23.7 nM.

Take `Cc1ncsc1-c1ccc(CNC(=O)[C@@H]2C[C@@H](O)CN2C(=O)[C@@H](NC(=O)CCCC(=O)N2CCN(CCOc3ccc(Oc4c(-c5ccc(F)cc5)sc5cc(O)ccc45)cc3)CC2)C(C)(C)C)cc1` [Compound 114]: the IC50 is 22 nM. Regarding `Cc1ncsc1-c1ccc(CNC(=O)[C@@H]2C[C@@H](O)CN2C(=O)[C@@H](NC(=O)CCC(=O)N2CC3CN(CCOc4ccc(Oc5c(-c6ccc(F)cc6)sc6cc(O)ccc56)cc4)CC3C2)C(C)(C)C)cc1` (stereo partly shown) [Compound 115], the IC50 was over 100 nM. With `Cc1ncsc1-c1ccc(CNC(=O)[C@@H]2C[C@@H](O)CN2C(=O)[C@@H](NC(=O)COCCO[C@@H]2CCN(CCOc3ccc(Oc4c(-c5ccc(F)cc5)sc5cc(O)ccc45)cc3)C2)C(C)(C)C)cc1` [Compound 116], the IC50 stood at 3 nM. As for `Cc1ncoc1-c1ccc([C@H](C)NC(=O)[C@@H]2C[C@@H](O)CN2C(=O)[C@@H](NC(=O)COCCOCCOCCOc2ccc(Oc3c(-c4ccc(Cl)cc4)sc4cc(O)ccc34)cc2)C(C)(C)C)cc1` [Compound 120], the IC50 came to 4.1 nM. Still for that read-out and setting: to `Cc1ncsc1-c1ccc(CNC(=O)[C@@H]2C[C@@H](O)CN2C(=O)[C@@H](NC(=O)CCCN2CC3CN(CCOc4ccc(Oc5c(-c6ccc(F)cc6)sc6cc(O)ccc56)cc4)CC3C2)C(C)(C)C)cc1` (stereo partly shown) [Compound 122] belongs over 100 nM.

Take `Cc1ncsc1-c1ccc(CNC(=O)[C@@H]2C[C@@H](O)CN2C(=O)[C@@H](NC(=O)COCCO[C@H]2CCN(CCOc3ccc(Oc4c(-c5ccc(F)cc5)sc5cc(O)ccc45)cc3)C2)C(C)(C)C)cc1` [Compound 123]: the IC50 came out at 5.5 nM.

Turning to `Cc1ncsc1-c1ccc(CNC(=O)[C@@H]2C[C@@H](O)CN2C(=O)[C@@H](NC(=O)CCCC(=O)N2CCN(CCOc3ccc(Oc4c(-c5ccc(F)cc5)sc5cc(O)ccc45)cc3)[C@@H](C)C2)C(C)(C)C)cc1` [Compound 124], the IC50 turned out to be 2.2 nM. As to `Cc1ncsc1-c1ccc(CNC(=O)[C@@H]2C[C@@H](O)CN2C(=O)[C@@H](NC(=O)CCCC(=O)N2CCN(CCOc3ccc(Oc4c(-c5ccc(F)cc5)sc5cc(O)ccc45)cc3)[C@H](C)C2)C(C)(C)C)cc1` [Compound 125], the IC50 stood at 1.6 nM. With `Cc1ncsc1-c1ccc(CNC(=O)[C@@H]2C[C@@H](O)CN2C(=O)[C@@H](NC(=O)CCCOCC2CCN(CCOc3ccc(Oc4c(-c5ccc(F)cc5)sc5cc(O)ccc45)cc3)C2)C(C)(C)C)cc1` (stereo partly shown) [Compound 131], the IC50 was found to be 0.4 nM. As for `C[C@H](NC(=O)[C@@H]1C[C@@H](O)CN1C(=O)[C@@H](NC(=O)COCCOCCOCCOc1ccc(Oc2c(-c3ccc(F)cc3)sc3cc(O)ccc23)cc1)C(C)(C)C)c1ccc(C#N)cc1` [Compound 132], the 50% inhibitory concentration (IC50) was 1.3 nM. Same read-out and setting: next, `CC(C)(C)[C@H](NC(=O)COCCOCCOCCOc1ccc(Oc2c(-c3ccc(F)cc3)sc3cc(O)ccc23)cc1)C(=O)N1C[C@H](O)C[C@H]1C(=O)NCc1ccc(C#N)cc1` [Compound 136]: 1.5 nM; `Cc1ncsc1-c1ccc(CNC(=O)[C@@H]2C[C@@H](O)CN2C(=O)[C@@H](NC(=O)CCCOC2CCN(CCOc3ccc(Oc4c(-c5ccc(F)cc5)sc5cc(O)ccc45)cc3)CC2)C(C)(C)C)cc1` [Compound 137]: 87 nM; `CC(C)(C)[C@H](NC(=O)COCCOCCN1CCC(c2ccc(Oc3c(-c4ccc(F)cc4)sc4cc(O)ccc34)cc2)CC1)C(=O)N1C[C@H](O)C[C@H]1C(=O)NCc1ccc(C#N)cc1` [Compound 143]: 32 nM. Regarding `CC(C)(C)[C@H](NC(=O)COCCOCCN1CCC(c2ccc(Oc3c(-c4ccc(F)cc4)sc4cc(O)ccc34)cc2)CC1)C(=O)N1C[C@H](O)C[C@H]1C(=O)NCc1ccc(Cl)cc1` [Compound 144], the IC50 is over 100 nM. On the same count and under the same terms, next, `CC(C)(C)[C@H](NC(=O)Cc1ccc(-c2ccn(CCOc3ccc(Oc4c(-c5ccc(F)cc5)sc5cc(O)ccc45)cc3)n2)cc1)C(=O)N1C[C@H](O)C[C@H]1C(=O)NCc1ccc(C#N)cc1` [Compound 145]: 97 nM; `CC(C)(C)[C@H](NC(=O)Cc1ccc(-c2ccn(CCOc3ccc(Oc4c(-c5ccc(F)cc5)sc5cc(O)ccc45)cc3)n2)cc1)C(=O)N1C[C@H](O)C[C@H]1C(=O)NCc1ccc(Cl)cc1` [Compound 146]: over 100 nM. On the same count and under the same terms, to `C[C@H](NC(=O)[C@@H]1C[C@@H](O)CN1C(=O)[C@@H](NC(=O)COCCOCCN1CCC(c2ccc(Oc3c(-c4ccc(F)cc4)sc4cc(O)ccc34)cc2)CC1)C(C)(C)C)c1ccc(Cl)cc1` [Compound 148] belongs over 100 nM.

For `Cc1ncsc1-c1ccc(CNC(=O)[C@H]2C[C@H](O)CN2C(=O)[C@@H](NC(=O)COCCN2CCN(CCOc3ccc(Oc4c(-c5ccc(Br)cc5)sc5cc(O)ccc45)cc3)CC2)C(C)(C)C)cc1` [Compound 152], the half-inhibitory concentration (IC50) was over 100 nM.

As to `COc1ccc2c(Oc3ccc(OCCN4CCN(CCOCC(=O)N[C@H](C(=O)N5C[C@H](O)C[C@H]5C(=O)NCc5ccc(-c6scnc6C)cc5)C(C)(C)C)CC4)cc3)c(-c3ccc(Br)cc3)sc2c1` [Compound 154], the IC50 was over 100 nM.

Take `COc1ccc2c(Oc3ccc(OCCN4CCN(CCOCC(=O)N[C@H](C(=O)N5C[C@H](O)C[C@H]5C(=O)N[C@@H](C)c5ccc(-c6scnc6C)cc5)C(C)(C)C)CC4)cc3)c(-c3ccc(Br)cc3)sc2c1` [Compound 155]: the IC50 was over 100 nM.

For `Cc1ncsc1-c1ccc(CNC(=O)[C@@H]2CCCN2C(=O)[C@@H](NC(=O)COCCN2CCN(CCOc3ccc(Oc4c(-c5ccc(Br)cc5)sc5cc(O)ccc45)cc3)CC2)C(C)(C)C)cc1` [Compound 156], the IC50 is over 100 nM. Still for that read-out and setting: next, `COc1ccc2c(Oc3ccc(OCCN4CCN(CCOCC(=O)N[C@H](C(=O)N5CCC[C@H]5C(=O)NCc5ccc(-c6scnc6C)cc5)C(C)(C)C)CC4)cc3)c(-c3ccc(Br)cc3)sc2c1` [Compound 157]: over 100 nM; `COc1ccc2c(Oc3ccc(OCCN4CCN(CCOCC(=O)N[C@H](C(=O)N5CC(=O)C[C@H]5C(=O)NCc5ccc(-c6scnc6C)cc5)C(C)(C)C)CC4)cc3)c(-c3ccc(Br)cc3)sc2c1` [Compound 159]: over 100 nM.

On to `Cc1ncsc1-c1ccc(CNC(=O)[C@@H]2C[C@@H](O)CN2C(=O)[C@H](c2cc(OCCN3CCN(CCOc4ccc(Oc5c(-c6ccc(Br)cc6)sc6cc(O)ccc56)cc4)CC3)no2)C(C)C)cc1` [Compound 163], for which the IC50 was over 100 nM.

Still in this test, the particulars now being: 10% FBS, 24 hours, Table 3 cereblon centric PROTACs, read-out: ER-α Luciferase IC50.
In the case of `O=C1CCC(N2Cc3cc(NCCCOCCCOCCCOc4ccc(Oc5c(-c6ccc(Br)cc6)sc6cc(O)ccc56)cc4)ccc3C2=O)C(=O)N1` (stereo not shown) [Compound 170], the half-inhibitory concentration (IC50) is 5.6 nM.

With `O=C1CCC(N2Cc3cc(NCCCOCCOCCOc4ccc(Oc5c(-c6ccc(Br)cc6)sc6cc(O)ccc56)cc4)ccc3C2=O)C(=O)N1` (stereo not shown) [Compound 171], the IC50 was 8.7 nM.

On to `O=C1CCC(N2C(=O)c3ccc(NCCCOCCCOCCOc4ccc(Oc5c(-c6ccc(Br)cc6)sc6cc(O)ccc56)cc4)cc3C2=O)C(=O)N1` (stereo not shown) [Compound 172], for which the IC50 is 15.7 nM.
